What was measured:
[1] = target: T1, human 5-HT1E receptor (Homo sapiens, UniProt P28566); test: R-SAT assay 5-HT1E; type: cell-based; settings: Table 3, 5-HT1E; percent response of reference BRL 54443
T1 construct: expressed in transfected cells; host or cells: NIH/3T3

[2] = target: T2, human 5-HT1F receptor (Homo sapiens, UniProt P30939); test: R-SAT assay 5-HT1F; type: cell-based; settings: Table 3, 5-HT1F; percent response of reference BRL 54443
T2 construct: expressed in transfected cells; host or cells: NIH/3T3
T2 sequence (P30939 1-366): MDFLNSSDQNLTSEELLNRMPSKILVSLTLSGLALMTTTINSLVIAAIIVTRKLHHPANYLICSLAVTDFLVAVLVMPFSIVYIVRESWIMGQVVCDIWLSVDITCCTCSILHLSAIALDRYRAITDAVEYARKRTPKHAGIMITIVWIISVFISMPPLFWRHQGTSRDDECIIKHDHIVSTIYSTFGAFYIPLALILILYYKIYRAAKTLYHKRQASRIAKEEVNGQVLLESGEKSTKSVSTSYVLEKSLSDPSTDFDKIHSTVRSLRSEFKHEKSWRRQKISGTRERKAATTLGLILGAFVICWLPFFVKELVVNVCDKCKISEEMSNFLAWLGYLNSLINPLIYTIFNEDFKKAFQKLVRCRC

[3] = target: T3, human 5-HT2C(vgv) receptor (Homo sapiens, UniProt P28335, I156V/I160V/N158G); test: R-SAT assay 5-HT2C; type: cell-based; settings: Table 3, 5-HT2C; for EC50: negative logarithm of EC50 in molar; for Eff (%): percent response of reference 5-CT
T3 construct: expressed in transfected cells; host or cells: NIH/3T3
T3 sequence (P28335 33-458 I156V/N158G/I160V): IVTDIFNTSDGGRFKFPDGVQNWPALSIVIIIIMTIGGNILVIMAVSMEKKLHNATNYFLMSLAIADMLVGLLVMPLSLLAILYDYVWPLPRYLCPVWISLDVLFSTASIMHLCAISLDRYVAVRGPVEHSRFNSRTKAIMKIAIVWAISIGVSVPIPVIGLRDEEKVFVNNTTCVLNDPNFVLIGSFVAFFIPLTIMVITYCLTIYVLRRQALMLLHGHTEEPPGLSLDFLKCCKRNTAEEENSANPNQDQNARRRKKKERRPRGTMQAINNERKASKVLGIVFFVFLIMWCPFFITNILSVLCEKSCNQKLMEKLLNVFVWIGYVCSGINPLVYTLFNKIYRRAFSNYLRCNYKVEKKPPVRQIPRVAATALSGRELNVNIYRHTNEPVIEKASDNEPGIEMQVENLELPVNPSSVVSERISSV

[4] = target: T4, human M2 receptor (Homo sapiens, UniProt P08172); test: R-SAT assay M2; type: cell-based; settings: Table 3, M2; percent response of reference Carbachol
T4 construct: expressed in transfected cells; host or cells: NIH/3T3
T4 sequence (P08172 1-466): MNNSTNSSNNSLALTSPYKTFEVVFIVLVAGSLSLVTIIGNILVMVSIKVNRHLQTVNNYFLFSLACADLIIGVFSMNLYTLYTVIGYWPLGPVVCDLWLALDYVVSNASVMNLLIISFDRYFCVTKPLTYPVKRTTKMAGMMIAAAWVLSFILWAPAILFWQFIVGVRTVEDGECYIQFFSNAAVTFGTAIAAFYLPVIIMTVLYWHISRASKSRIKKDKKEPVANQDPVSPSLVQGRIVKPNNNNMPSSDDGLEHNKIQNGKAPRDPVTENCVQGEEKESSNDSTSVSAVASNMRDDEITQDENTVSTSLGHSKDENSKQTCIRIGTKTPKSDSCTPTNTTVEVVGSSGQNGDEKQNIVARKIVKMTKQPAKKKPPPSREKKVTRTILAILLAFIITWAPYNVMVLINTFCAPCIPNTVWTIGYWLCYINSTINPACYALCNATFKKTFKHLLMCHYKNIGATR

[5] = target: T5, human alpha2A receptor (Homo sapiens, UniProt P08913); test: R-SAT assay α2A; type: cell-based; settings: Table 3, α2A; percent response of reference UK 14,306
T5 construct: expressed in transfected cells; host or cells: NIH/3T3 cells, transient transfection, pSI vector

[6] = target: T6, human alpha2B receptor (Homo sapiens, UniProt P18089); test: R-SAT assay α2B; type: cell-based; settings: Table 3, α2B; percent response of reference UK 14,306
T6 construct: expressed in transfected cells; host or cells: NIH/3T3 cells, transient transfection, pSI vector

[7] = system: drug naive mice; test: Head twitch induction in mice; type: in vivo; settings: DOI 1 mg/kg ip, OSU6162 enantiomers 9.375-300 μmol/kg ip, 10 min before registration
Method: The animals used in the head twitch experiments were individually placed in Macrolon type II cages and allowed to habituate to these test cages during 30 minutes before the video registration of behavior began. […] The animals were videotaped for 10 minutes; the behavior was scored during the first 5 minutes. The number of head twitches was counted from the videotapes by a person blind to the treatment.
In FIG. 5, the number of head twitches produced during 5 minutes is shown. The mice were habituated to the test cages during 30 minutes before the video registration of behavior began. […] Shown are means and SEM, n=6-12.

[8] = target: human 5-HT2A receptors (Homo sapiens, UniProt P28223); test: Phosphatidyl inositol (PI) hydrolysis assay at 5-HT2A; type: cell-based; parameters: expressed in transfected cells; settings: mean ± SEM; for EC50: negative logarithm of EC50 in molar (M), HEK 293T cells, read-out: PI Hydrolysis pEC50 (converted); for PI Hydrolysis Eff (%): percent response of reference ligand 5-HT
Method: After lysing the cells with 50 μl of 0.1M formic acid, 20 μl each cell lysate was mixed with 80 μl (1 mg) RNA Binding YSi-SPA beads (GE Healthcare, Chalfont St. Giles, UK) on PICO plates (PerkinElmer) and counted on a TopCount (Packard).
Each curve is representative of at least three or more independent experiments.

[9] = target: T7, D2 receptors (Homo sapiens, UniProt P14416); test: GTPγS binding assay at D2; type: biochemical; parameters: expressed in transfected cells
Method: (§1) Cells were not centrifuged following cell scraping, but were collected directly into the ice-cold nitrogen cavitation chamber.
50 μl/well Wheat-Germ Agglutinin SPA beads (Perkin Elmer, Shelton, Conn.) were added to the plates and the plates incubated for 1 hour. The plates were then centrifuged at 1,000×g for 10 minutes and read on a Top Count NXT (Perkin Elmer, Shelton, Conn.).
To relate the results observed in R-SAT™ to a more conventional assay system, these ligands were also tested for the ability to induce GTPγS binding through D2 receptors.

[10] = target: human norepinephrine transporter (NET) (Homo sapiens, UniProt P23975); test: Equilibrium radioligand binding to NET; settings: displacement of 3H-Imipramine
Method: as §1
Membranes were prepared as described above. […] Binding reactions were terminated by filtration through UniFilter-96GF/B filters (from Perkin-Elmer, presoaked with 0.1% polyethylenimine for 1 h) with a Brandel 96-well harvester. Filters were washed with ice-cold wash buffer (50 mM Tris, 120 mM NaCl, pH7.4; 500 ml/plate) and then allowed to air-dry for 30 min. 50 μl MacrosScint-20 scintillation cocktail was added to each well, the plates were sealed, and then counted on a Top-Count (Packard).

[11] = target: T7, D2 receptors; test: BRET2 beta-arrestin-2 recruitment assay at D2; type: cell-based; parameters: expressed in transfected cells; host or cells: HEK-293T; settings: percent response of reference ligand dopamine; mean ± SEM
Method: BRET-2 signals were measured using the multiplate reader Mithras 940LB (Berthold Technologies, Bad Wildbad, Germany) and were calculated as the ratio between the Renilla luciferase emission and the GFP2 emission corrected by the background emissions of non-transfected cells.
Each curve is representative of two to three independent experiments.

[12] = system: habituated rats; test: Locomotion in habituated rats, photocell activity boxes; settings: 5-35 minutes after injection; for locomotion in habituated rats: 6.25, 12.5, 50, 100, 200 and 400 μmol/kg sc, vs Control; for locomotion, accumulated unrepeated beam breaks, means±SEM of pooled groups: habituated rats, 50 μmol/kg sc, 30 minutes period, controls 23±6
Method: Motor activity experiments in both active and habituated rats were performed on male Sprague-Dawley rats (Charles River, Germany) weighing 280-320 g. Prior to testing, rats were housed in groups of four or five in ventilated Macrolon type IV cages for approximately one week.
Rats were housed in a normal daylight cycle and the experiments were carried out during daytime. […] During the following 5 minutes test drugs were injected, after which the rats were returned to the boxes for another 60 minutes. Five by five rows of photocell beams at floor level allowed a computer based-system to register horizontal activity. Motor activity is presented as accumulated number of unrepeated beam breaks, i.e. several consecutive breakings of one beam is counted as one beam break. The software was set to register behavior from the rats' first introduction into the arena until it was finally removed from the box, i.e. for 110 or 130 minutes.
Locomotion was measured as accumulated unrepeated beam breaks. […] This was followed by 60 minutes of registration. Data are calculated from a 30 minutes period, 5-35 minutes after injection, and plotted as means and SEM. […] Data were calculated from a 30 minutes period, 5-35 minutes after injection.
The effect of haloperidol on the locomotor stimulation was also studied in habituated rats (see FIG. 10). Locomotion was measured as accumulated unrepeated beam breaks. Rats were given haloperidol (0.05, 0.2, 0.5 mg/kg, sc) and were then allowed to habituate for 65 minutes. […] Data are calculated from a 30 minutes period, taken 5-35 minutes after injection, and plotted as means and SEM. N=4-5.

[13] = system: reserpine-pretreated mice; test: Motor activity in monoamine-depleted (reserpine-pretreated) mice, video tracking; settings: for motor activity (distance moved, DM 1.5): reserpine 10 mg/kg ip 20 h prior, test drug ip just prior to recording, first 30 minutes, vs reserpine only group

human 5-HT2A receptors, sequence (P28223 whole entry): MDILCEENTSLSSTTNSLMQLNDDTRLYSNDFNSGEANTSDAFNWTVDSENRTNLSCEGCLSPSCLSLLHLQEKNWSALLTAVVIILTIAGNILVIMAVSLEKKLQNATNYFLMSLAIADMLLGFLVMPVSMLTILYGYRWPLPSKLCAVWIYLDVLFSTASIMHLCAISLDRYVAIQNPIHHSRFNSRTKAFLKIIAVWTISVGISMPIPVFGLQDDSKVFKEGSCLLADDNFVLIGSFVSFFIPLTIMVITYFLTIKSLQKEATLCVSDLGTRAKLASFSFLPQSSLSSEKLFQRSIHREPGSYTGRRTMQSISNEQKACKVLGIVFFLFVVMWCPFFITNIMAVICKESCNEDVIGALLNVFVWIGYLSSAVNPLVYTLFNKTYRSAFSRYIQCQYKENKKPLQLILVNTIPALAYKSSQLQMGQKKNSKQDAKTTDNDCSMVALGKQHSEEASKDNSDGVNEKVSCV
T7 sequence (P14416 1-414 isoform P14416-2): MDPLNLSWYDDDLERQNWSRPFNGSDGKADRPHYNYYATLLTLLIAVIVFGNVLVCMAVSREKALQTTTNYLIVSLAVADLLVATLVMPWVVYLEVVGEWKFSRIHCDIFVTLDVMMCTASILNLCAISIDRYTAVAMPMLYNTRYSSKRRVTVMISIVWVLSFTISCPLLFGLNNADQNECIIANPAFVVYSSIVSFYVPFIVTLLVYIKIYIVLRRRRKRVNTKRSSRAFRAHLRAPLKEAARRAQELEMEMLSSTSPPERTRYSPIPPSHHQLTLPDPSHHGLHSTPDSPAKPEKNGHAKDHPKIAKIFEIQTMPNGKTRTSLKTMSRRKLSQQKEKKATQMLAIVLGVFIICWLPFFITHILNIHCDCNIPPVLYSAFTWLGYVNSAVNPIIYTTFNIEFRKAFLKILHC
human norepinephrine transporter (NET), sequence (P23975 whole entry): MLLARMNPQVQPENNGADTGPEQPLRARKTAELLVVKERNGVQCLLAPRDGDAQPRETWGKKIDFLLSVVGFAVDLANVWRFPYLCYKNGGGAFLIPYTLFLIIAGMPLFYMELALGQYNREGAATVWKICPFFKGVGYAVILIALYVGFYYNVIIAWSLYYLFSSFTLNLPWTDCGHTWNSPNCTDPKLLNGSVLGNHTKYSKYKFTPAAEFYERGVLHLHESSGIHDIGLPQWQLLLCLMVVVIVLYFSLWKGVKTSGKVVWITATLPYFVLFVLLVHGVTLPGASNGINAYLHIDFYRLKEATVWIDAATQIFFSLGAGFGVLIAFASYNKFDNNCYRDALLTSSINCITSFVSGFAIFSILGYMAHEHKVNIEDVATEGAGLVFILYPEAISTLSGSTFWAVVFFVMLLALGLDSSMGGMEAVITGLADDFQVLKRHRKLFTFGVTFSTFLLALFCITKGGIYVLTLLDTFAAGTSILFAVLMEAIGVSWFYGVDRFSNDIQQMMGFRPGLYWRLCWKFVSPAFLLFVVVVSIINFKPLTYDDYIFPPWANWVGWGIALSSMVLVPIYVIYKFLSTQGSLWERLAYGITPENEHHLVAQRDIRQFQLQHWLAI
T1 sequence (P28566 whole entry): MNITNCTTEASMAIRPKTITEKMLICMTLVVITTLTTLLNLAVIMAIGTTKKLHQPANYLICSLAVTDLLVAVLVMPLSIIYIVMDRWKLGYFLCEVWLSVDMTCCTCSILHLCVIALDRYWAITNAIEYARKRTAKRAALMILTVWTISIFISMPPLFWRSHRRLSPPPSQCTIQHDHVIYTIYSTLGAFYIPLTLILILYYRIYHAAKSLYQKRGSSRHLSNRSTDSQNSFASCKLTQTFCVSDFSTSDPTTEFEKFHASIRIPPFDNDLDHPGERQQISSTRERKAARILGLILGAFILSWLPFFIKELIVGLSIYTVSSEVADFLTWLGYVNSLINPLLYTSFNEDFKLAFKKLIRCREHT
T5 sequence (P08913 whole entry): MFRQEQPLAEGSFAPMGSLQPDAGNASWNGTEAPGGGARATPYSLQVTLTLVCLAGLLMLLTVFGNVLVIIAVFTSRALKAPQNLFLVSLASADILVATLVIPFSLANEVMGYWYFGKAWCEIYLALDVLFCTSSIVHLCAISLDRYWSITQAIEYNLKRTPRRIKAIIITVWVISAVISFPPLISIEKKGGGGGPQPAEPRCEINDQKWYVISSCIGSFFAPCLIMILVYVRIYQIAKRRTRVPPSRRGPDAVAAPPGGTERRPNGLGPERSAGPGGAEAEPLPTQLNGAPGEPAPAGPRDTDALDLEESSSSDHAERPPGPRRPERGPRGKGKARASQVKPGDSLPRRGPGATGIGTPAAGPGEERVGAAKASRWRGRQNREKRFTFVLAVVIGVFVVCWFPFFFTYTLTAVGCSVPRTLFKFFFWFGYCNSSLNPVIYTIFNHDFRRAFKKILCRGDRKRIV
T6 sequence (P18089 whole entry): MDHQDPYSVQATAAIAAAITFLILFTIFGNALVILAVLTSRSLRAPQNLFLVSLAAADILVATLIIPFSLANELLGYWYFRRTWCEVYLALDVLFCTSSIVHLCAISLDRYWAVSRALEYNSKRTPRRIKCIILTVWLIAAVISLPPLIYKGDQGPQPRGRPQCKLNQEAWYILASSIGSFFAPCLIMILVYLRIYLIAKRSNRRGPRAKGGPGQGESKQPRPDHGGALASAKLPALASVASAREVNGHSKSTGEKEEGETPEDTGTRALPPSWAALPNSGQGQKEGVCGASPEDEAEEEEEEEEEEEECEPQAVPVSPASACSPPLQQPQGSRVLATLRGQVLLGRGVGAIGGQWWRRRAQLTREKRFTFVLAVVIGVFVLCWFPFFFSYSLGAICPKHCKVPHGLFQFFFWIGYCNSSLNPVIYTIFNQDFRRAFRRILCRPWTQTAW

SMILES	Eff (%) [1]	Eff (%) [2]	EC50 [3]	Eff (%) [3]	Eff (%) [4]	Eff (%) [5]	Eff (%) [6]	head twitches produced during 5 minutes [7]	EC50 [8]	PI Hydrolysis Eff (%) [8]	EC50 ([9]; negative logarithm of EC50 in molar, HEK293T membranes, mean ± SEM, read-out: GTPγS pEC50 (converted))	GTPγS Eff % ([9]; percent response of reference ligand dopamine, mean ± SEM)	Inh % [10]	BRET2 Eff % [11]	locomotion in habituated rats [12]	locomotion, accumulated unrepeated beam breaks, means±SEM of pooled groups [12]	motor activity (distance moved, DM 1.5) [13]	Emax at 50 µM ([9]; read-out: GTPγS Eff %, response at 50 μM)	effect on motor activity compared with the (−)-enantiomer ([13]; reserpine-pretreated mice, 250 μmol/kg ip, p<0.01)
CCCN1CCC[C@@H](c2cccc(S(C)(=O)=O)c2)C1 [(−)-OSU6162, (3S)-3-[3-(methylsulfonyl)phenyl]-1-propylpiperidine]	5%	30%	7.94 µM	68%	9%	2%	13%	produced head twitches but to a lesser degree than DOI	1.26e-06 M	65 ± 4%	0.501 µM	37 ± 9%	11%	0 ± 0%	significant locomotor stimulation was observed for all doses but the lowest	129±11 unrepeated beam breaks	statistically significant increase in motor activity at 125 and 250 μmol/kg	–	–
CCCN1CCC[C@H](c2cccc(S(C)(=O)=O)c2)C1 [(+)-OSU6162, (3R)-3-[3-(methylsulfonyl)phenyl]-1-propylpiperidine]	5%	22%	31.6 µM	84%	22%	5%	8%	produced head twitches but to a lesser degree than DOI	2e-06 M	82 ± 4%	–	–	14%	0 ± 0%	significant locomotor stimulation was observed for all doses but the two lowest	95±12 unrepeated beam breaks	statistically significant increase in motor activity at 125, 250 and 500 μmol/kg, with a peak response at 250 μmol/kg	36%	much larger effect on motor activity

Reference: patent US20130197032A1, “[…] COMPOUNDS FOR THE TREATMENT OF NEUROLOGICAL AND […] DISORDERS” (A. CARLSSON RESEARCH AB, priority 2010, published 2013)
